Like-named read-outs stand apart in the source and are kept apart here. Marks after values point to notes of the source that are not given here.
Key:
[1] = Particle size distribution (Sympatec HELOS, dry dispersion); type: physicochemical
From the text: Particle Size Distribution:
Sympatec HELOS (H0445), dry dispersion system (RODOS), pressure 2 bar

[2] = Active ingredient release from 1 mg capsule / 1 mg tablet; type: physicochemical; settings: 0.3% SDS in water
Method: The release values were compared in a test medium, which comprises 0.3% SDS in water, with paddle stirring, 100 rpm.
Active Ingredient Release:
Active ingredient release measured in 1000 mL water with 0.3% sodium dodecyl sulfate, 100 rpm
Content Determination by HPLC with external calibration
(§1) Column: LiChrosphere 5μ RP-18 encapped, 150×3 mm
(§2) Eluent: acetonitrile/water=45/55

[3] = Text: Content Determination according to USP/Ph. Eur. for individual capsules after elution through HPLC with external calibration
as §1, §2

[4] = Example 7, primary particle size
[5] = Example 6, primary particle size
[6] = 1 mg capsule, microcrystals X50 3.4/X100 25 μm
[7] = 1 mg capsule, microcrystals X50 5.2/X100 30 μm
[8] = 1 mg capsule, microcrystals X50 6.6/X100 43 μm
[9] = 1 mg capsule, microcrystals X50 8.7/X100 43 μm
[10] = 1 mg capsule, microcrystals X50 14.1/X100 87 μm
[11] = 1 mg tablet, microcrystals X50 10.6/X100 73 μm
[12] = Example 1, spray-dried microcrystals
[13] = Example 2, primary particle size
[14] = Example 3, primary particle size
[15] = after drying on filter (from ethyl acetate suspension)
[16] = after spray-drying (from ethanol/water suspension)
[17] = suspension in ethanol/water (90/10) with 10% by weight microcrystalline J956, before drying
[18] = suspension in ethyl acetate with 14% by weight microcrystalline J956, before drying
[19] = Example 4, primary particle size

Question: For `C[C@]1(O)CC[C@H]2[C@@H]3CCC4=CC(=O)CC[C@@H]4[C@H]3CC[C@@]21C` [methylnortestosterone, reference compound], which “Particle size X10” value [1, 4] is on record?
Answer: 1.32 μm

Question: What about the “Particle size X50” value [1, 4] of the same molecule?
Answer: 3.96 μm

Question: And the “Particle size X99” value [1, 4]?
Answer: 14 μm

Question: What about the “Particle size X100” value [1, 4] of the same molecule?
Answer: 18 μm

Question: What about the “Particle size X10” value ([1]; Example 7, spray-dried) of the same molecule?
Answer: 1.36 μm

Question: And the “Particle size X50” value ([1]; Example 7, spray-dried)?
Answer: 3.94 μm

Question: And the “Particle size X99” value ([1]; Example 7, spray-dried)?
Answer: 14 μm

Question: And the “Particle size X100” value ([1]; Example 7, spray-dried)?
Answer: 18 μm

Question: For `CCNC(=O)ON=Cc1ccc(C2CC3(C)C(CCC3(COC)OC)C3CCC4=CC(=O)CCC4=C23)cc1` (stereo not drawn) [Micronizate, 11β-{4-[(ethylaminocarbonyl)oximinomethyl]phenyl}-17β-methoxy-17α-methoxymethyl-estra-4,9-dien-3-one, reference compound], which RELEASE in % ([2]; 1 mg capsule, micronized J956, 0 min, paddle 100 rpm) is on record?
Answer: 0%

Question: What about the RELEASE in % ([2]; 1 mg capsule, micronized J956, 10 min, paddle 100 rpm) of the same molecule?
Answer: 92.1%

Question: And the RELEASE in % ([2]; 1 mg capsule, micronized J956, 20 min, paddle 100 rpm)?
Answer: 94.3%

Question: And the RELEASE in % ([2]; 1 mg capsule, micronized J956, 30 min, paddle 100 rpm)?
Answer: 94.6%

Question: And the RELEASE in % ([2]; 1 mg capsule, micronized J956, 45 min, paddle 100 rpm)?
Answer: 94.9%

Question: And the RELEASE in % ([2]; 1 mg tablet, micronized J956, 0 min, paddle, 100 rpm)?
Answer: 0%

Question: And the RELEASE in % ([2]; 1 mg tablet, micronized J956, 10 min, paddle, 100 rpm)?
Answer: 92.1%

Question: And the RELEASE in % ([2]; 1 mg tablet, micronized J956, 20 min, paddle, 100 rpm)?
Answer: 94.3%

Question: What about the RELEASE in % ([2]; 1 mg tablet, micronized J956, 30 min, paddle, 100 rpm) of the same molecule?
Answer: 94.6%

Question: And the RELEASE in % ([2]; 1 mg tablet, micronized J956, 45 min, paddle, 100 rpm)?
Answer: 94.9%

Question: What about the “CUT value spread: Confidence Interval %” value ([3]; 1 mg capsule, micronized J956) of the same molecule?
Answer: 1.72%

Question: What about the “CUT value spread: RSD, %” value ([3]; 1 mg capsule, micronized J956) of the same molecule?
Answer: 2.56%

Question: And the “CUT value spread: Confidence Interval %” value ([3]; 1 mg tablet, micronized J956)?
Answer: 1.72%

Question: What about the “CUT value spread: RSD, %” value ([3]; 1 mg tablet, micronized J956) of the same molecule?
Answer: 2.56%

Question: With `C#C[C@]1(OC(C)=O)CC[C@H]2[C@@H]3CCC4=CC(=O)CC[C@@H]4[C@H]3CC[C@@]21C` [norethisterone acetate, reference compound] as the molecule, how does the “Particle size X10” value ([1]; Example 6, end) read?
Answer: 8.5 μm

Question: What about the “Particle size X50” value ([1]; Example 6, end) of the same molecule?
Answer: 30.4 μm

Question: What about the “Particle size X99” value ([1]; Example 6, end) of the same molecule?
Answer: 87 μm

Question: What about the “Particle size X100” value ([1]; Example 6, end) of the same molecule?
Answer: 100 μm

Question: And the “Particle size X10” value [1, 5]?
Answer: 4 μm

Question: What about the “Particle size X50” value [1, 5] of the same molecule?
Answer: 14 μm

Question: And the “Particle size X99” value [1, 5]?
Answer: 55 μm

Question: And the “Particle size X100” value [1, 5]?
Answer: 87 μm

Question: What does the source list for `CCNC(=O)ON=Cc1ccc(C2CC3(C)C(CCC3(COC)OC)C3CCC4=CC(=O)CCC4=C23)cc1` (stereo not drawn) [J956, 11β-{4-[(ethylaminocarbonyl)oximinomethyl]phenyl}-17β-methoxy-17α-methoxymethyl-estra-4,9-dien-3-one]?
Answer: RELEASE in % ([2]; 1 mg capsule, microcrystals X50 3.4/X100 25 μm, 0 min, paddle 100 rpm): 0%; RELEASE in % ([2]; 1 mg capsule, microcrystals X50 3.4/X100 25 μm, 10 min, paddle 100 rpm): 90.7%; RELEASE in % ([2]; 1 mg capsule, microcrystals X50 3.4/X100 25 μm, 20 min, paddle 100 rpm): 97.3%; RELEASE in % ([2]; 1 mg capsule, microcrystals X50 3.4/X100 25 μm, 30 min, paddle 100 rpm): 98.1%; RELEASE in % ([2]; 1 mg capsule, microcrystals X50 3.4/X100 25 μm, 45 min, paddle 100 rpm): 99.9%; RELEASE in % ([2]; 1 mg capsule, microcrystals X50 5.2/X100 30 μm, 0 min, paddle 100 rpm): 0%; RELEASE in % ([2]; 1 mg capsule, microcrystals X50 5.2/X100 30 μm, 10 min, paddle 100 rpm): 89.8%; RELEASE in % ([2]; 1 mg capsule, microcrystals X50 5.2/X100 30 μm, 20 min, paddle 100 rpm): 93.5%; RELEASE in % ([2]; 1 mg capsule, microcrystals X50 5.2/X100 30 μm, 30 min, paddle 100 rpm): 93.4%; RELEASE in % ([2]; 1 mg capsule, microcrystals X50 5.2/X100 30 μm, 45 min, paddle 100 rpm): 95.6%; RELEASE in % ([2]; 1 mg capsule, microcrystals X50 6.6/X100 43 μm, 0 min, paddle 100 rpm): 0%; RELEASE in % ([2]; 1 mg capsule, microcrystals X50 6.6/X100 43 μm, 10 min, paddle 100 rpm): 93.2%; RELEASE in % ([2]; 1 mg capsule, microcrystals X50 6.6/X100 43 μm, 20 min, paddle 100 rpm): 95.9%; RELEASE in % ([2]; 1 mg capsule, microcrystals X50 6.6/X100 43 μm, 30 min, paddle 100 rpm): 96.7%; RELEASE in % ([2]; 1 mg capsule, microcrystals X50 6.6/X100 43 μm, 45 min, paddle 100 rpm): 96.8%; RELEASE in % ([2]; 1 mg capsule, microcrystals X50 8.7/X100 43 μm, 0 min, paddle 100 rpm): 0%; RELEASE in % ([2]; 1 mg capsule, microcrystals X50 8.7/X100 43 μm, 10 min, paddle 100 rpm): 93.5%; RELEASE in % ([2]; 1 mg capsule, microcrystals X50 8.7/X100 43 μm, 20 min, paddle 100 rpm): 96.7%; RELEASE in % ([2]; 1 mg capsule, microcrystals X50 8.7/X100 43 μm, 30 min, paddle 100 rpm): 98.5%; RELEASE in % ([2]; 1 mg capsule, microcrystals X50 8.7/X100 43 μm, 45 min, paddle 100 rpm): 99.7%; RELEASE in % ([2]; 1 mg capsule, microcrystals X50 14.1/X100 87 μm, 0 min, paddle 100 rpm): 0%; RELEASE in % ([2]; 1 mg capsule, microcrystals X50 14.1/X100 87 μm, 10 min, paddle 100 rpm): 90.2%; RELEASE in % ([2]; 1 mg capsule, microcrystals X50 14.1/X100 87 μm, 20 min, paddle 100 rpm): 95.3%; RELEASE in % ([2]; 1 mg capsule, microcrystals X50 14.1/X100 87 μm, 30 min, paddle 100 rpm): 96.0%; RELEASE in % ([2]; 1 mg capsule, microcrystals X50 14.1/X100 87 μm, 45 min, paddle 100 rpm): 96.3%; RELEASE in % ([2]; 1 mg tablet, microcrystals X50 10.6/X100 73 μm, 0 min, paddle, 100 rpm): 0%; RELEASE in % ([2]; 1 mg tablet, microcrystals X50 10.6/X100 73 μm, 10 min, paddle, 100 rpm): 73.7%; RELEASE in % ([2]; 1 mg tablet, microcrystals X50 10.6/X100 73 μm, 20 min, paddle, 100 rpm): 90.3%; RELEASE in % ([2]; 1 mg tablet, microcrystals X50 10.6/X100 73 μm, 30 min, paddle, 100 rpm): 91.85%; RELEASE in % ([2]; 1 mg tablet, microcrystals X50 10.6/X100 73 μm, 45 min, paddle, 100 rpm): 96.6%; CUT value spread: Confidence Interval % [3, 6]: 2.23%; CUT value spread: RSD, % [3, 6]: 3.56%; CUT value spread: Confidence Interval % [3, 7]: 1.20%; CUT value spread: RSD, % [3, 7]: 2.08%; CUT value spread: Confidence Interval % [3, 8]: 1.08%; CUT value spread: RSD, % [3, 8]: 1.57%; CUT value spread: Confidence Interval % [3, 9]: 0.93%; CUT value spread: RSD, % [3, 9]: 1.38%; CUT value spread: Confidence Interval % [3, 10]: 1.77%; CUT value spread: RSD, % [3, 10]: 2.50%; CUT value spread: Confidence Interval % [3, 11]: 1.16%; CUT value spread: RSD, % [3, 11]: 1.70%; Particle size X10 [1, 12]: 1.75 μm; Particle size X50 [1, 12]: 6.04 μm; Particle size X100 [1, 12]: 36 μm; Particle size X10 ([1]; Example 2, final): 4 μm; Particle size X50 ([1]; Example 2, final): 13 μm; Particle size X100 ([1]; Example 2, final): 73 μm; Particle size X10 [1, 13]: 3 μm; Particle size X50 [1, 13]: 9 μm; Particle size X100 [1, 13]: 61 μm; Particle size X10 ([1]; Example 3, final): 1.4 μm; Particle size X50 ([1]; Example 3, final): 5.4 μm; Particle size X100 ([1]; Example 3, final): 30 μm; Particle size X10 [1, 14]: 1.2 μm; Particle size X50 [1, 14]: 3.4 μm; Particle size X100 [1, 14]: 30 μm; average particle diameter (×50) ([1]; after dissolution and re-crystallization of 40 percent of the precipitate from 20 percent by weight ethyl acetate solution): 7.8 μm; Particle diameter X10 [1, 15]: 2.7 μm; Particle diameter X50 [1, 15]: 10.61 μm; Particle diameter X90 [1, 15]: 24 μm; Particle diameter X100 [1, 15]: 73 μm; Particle diameter X10 [1, 16]: 2.25 μm; Particle diameter X50 [1, 16]: 8.03 μm; Particle diameter X90 [1, 16]: 17 μm; Particle diameter X100 [1, 16]: 43 μm; increase of the maximum particle size (×100) ([1]; during dissolution and re-crystallization of 40 percent of the precipitate from 20 percent by weight ethyl acetate solution): scarcely measurable; average particle diameter (×50) ([1]; precipitated from a 20 percent by weight ethyl acetate solution, before dissolution and re-crystallization): 4.9 μm; Particle diameter X10 [1, 17]: 2.11 μm; Particle diameter X50 [1, 17]: 8.6 μm; Particle diameter X90 [1, 17]: 19 μm; Particle diameter X100 [1, 17]: 51 μm; Particle diameter X10 [1, 18]: 2.62*** μm; Particle diameter X50 [1, 18]: 10.4 μm; Particle diameter X90 [1, 18]: 24 μm; Particle diameter X100 [1, 18]: 73 μm

Question: What does the source list for `CCCCCCCCCCC(=O)O[C@H]1CC[C@H]2[C@@H]3CCC4=CC(=O)CC[C@]4(C)[C@H]3CC[C@]12C` [testosterone undecanoate, reference compound]?
Answer: Particle size X10 ([1]; Example 4, 1st cycle): 17 μm; Particle size X50 ([1]; Example 4, 1st cycle): 41 μm; Particle size X99 ([1]; Example 4, 1st cycle): 100 μm; Particle size X100 ([1]; Example 4, 1st cycle): 120 μm; Particle size X10 [1, 19]: 6 μm; Particle size X50 [1, 19]: 21 μm; Particle size X99 [1, 19]: 100 μm; Particle size X100 [1, 19]: 120 μm

Source: patent publication US20030215516A1, “Process for production of crystals of a medicinally effective ingredient, crystals obtained thereby and pharmaceutical preparations containing them” (priority 2002, published 2003)
